Laboratory results taken from patent US20100311581A1, “Azolylmethyloxiranes, use Thereof and Agents Containing the Same” (BASF SE, priority 2007, published 2010).
Like-named read-outs stand apart in the source and are kept apart here.

What was measured:
Septoria tritici = test: Activity against Septoria leaf blotch Septoria tritici in the microtiter test (Septtr); type: cell-based
Pyriculana oryzae = type: cell-based
Phakopsora pachyrhizi = test: Curative activity against soya rust caused by Phakopsora pachyrhizi (Phakpa K1), greenhouse; type: in vivo; details: curative spray on soya seedlings, visual rating after 14 days in greenhouse, untreated 90% attack
Leptosphaeria nodorum = test: Activity against glume blotch Leptosphaeria nodorum in the microtiter test (Leptno); type: cell-based
[1] = Comparison tests, microtiter test
[2] = microtiter plate, 7th day after inoculation, 405 nm, relative to active compound-free control (100%)
[3] = 31 ppm, microtiter plate, seventh day after inoculation, 405 nm, relative to active compound-free control (=100%)
[4] = Comparison tests, 31 ppm, microtiter test

## Fc1ccccc1[C@@]1(Cn2nc[nH]c2=S)O[C@@H]1c1ccccc1Cl
Septoria tritici; [1]
  Growth in % at 31 ppm with Septtr: 58%

## Fc1cccc([C@@]2(Cn3nc[nH]c3=S)O[C@@H]2c2ccccc2Cl)c1 (relative stereo) [Example 1, 1-[rel-(2S,3R)-3-(2-chlorophenyl)-2-(3-fluorophenyl)oxiran-2-ylmethyl]-1H-1,2,4-triazole-5(4H)-thione]
Septoria tritici; [1]
  Growth in % at 31 ppm with Septtr: 21%
Septoria tritici; [2]
  Growth in % at 31 ppm with Septtr: 21%

## Cc1ccccc1[C@H]1O[C@]1(Cn1nc[nH]c1=S)c1cccc(F)c1 (relative stereo) [Example 3, 1-[rel-(2S,3R)-2-(3-fluorophenyl)-3-o-tolyloxiran-2-ylmethyl]-1H-1,2,4-triazole-5(4H)-thione]
Septoria tritici; [2]
  Growth in % at 31 ppm with Septtr: 11%

## CSc1ncnn1C[C@]1(c2cccc(F)c2)O[C@@H]1c1ccccc1F (relative stereo) [Example 4, 1-[rel-(2S,3R)-3-(2-fluorophenyl)-2-(3-fluorophenyl)oxiran-2-ylmethyl]-5-(methylthio)-1H-1,2,4-triazole]
Pyriculana oryzae; [3]
  Growth in % at 31 ppm with Pyrior: 0%
Pyriculana oryzae; [4]
  Growth in % at 31 ppm with Pyrior: 0%

## CSc1ncnn1C[C@]1(c2cccc(F)c2)O[C@@H]1c1ccccc1C (relative stereo) [Example 5, 1-rel-[(2S,3R)-2-(3-fluorophenyl)-3-o-tolyloxiran-2-ylmethyl]-5-(methylthio)-1H-1,2,4-triazole]
Pyriculana oryzae; [3]
  Growth in % at 31 ppm with Pyrior: 0%

## CSc1ncnn1C[C@]1(c2cccc(F)c2)O[C@@H]1c1ccccc1Cl (relative stereo) [Example 6, 1-[rel-(2S,3R)-3-(2-chlorophenyl)-2-(3-fluorophenyl)oxiran-2-ylmethyl]-5-(methylthio)-1H-1,2,4-triazole]
Phakopsora pachyrhizi
  Attack in % at 600 ppm with Phakpa K1: 0%

## N#CSc1ncnn1C[C@]1(c2cccc(F)c2)O[C@@H]1c1ccccc1Cl (relative stereo) [Example 9, 1-[rel-(2S,3R)-3-(2-chlorophenyl)-2-(3-fluorophenyl)oxiran-2-ylmethyl]-5-thiocyanato-1H-1,2,4-triazole]
Septoria tritici; [2]
  Growth in % at 31 ppm with Septtr: 49%

## CCOP(=S)(OCC)Sc1ncnn1C[C@]1(c2cccc(F)c2)O[C@@H]1c1ccccc1Cl (relative stereo) [Example 10, S-1-[rel-(2S,3R)-3-(2-chlorophenyl)-2-(3-fluorophenyl)oxiran-2-ylmethyl]-1H-1,2,4-triazole-5-yl O,O-diethyl phosphorodithioate]
Pyriculana oryzae
  Growth in % at 31 ppm with Pyrior: 0%

## COC(=O)Sc1ncnn1C[C@]1(c2cccc(F)c2)O[C@@H]1c1ccccc1Cl (relative stereo) [Example 12, methyl {2-[rel-(2S,3R)-3-(2-chlorophenyl)-2-(3-fluorophenyl)-oxiranylmethyl]-2H-[1,2,4]triazole-3-yl}thiocarbonate]
Leptosphaeria nodorum; [1]
  Growth in % at 31 ppm with Leptno: 0%
Leptosphaeria nodorum; microtiter plate, 7th day after inoculation, 405 nm, relative to active compound-free control
  Growth in % at 31 ppm with Leptno: 0%
Septoria tritici; [1]
  Growth in % at 31 ppm with Septtr: 25%

## CSc1ncnn1C[C@]1(c2ccc(F)cc2)O[C@@H]1c1ccccc1F [WO9638440, p. 17 (4th compound),]
Pyriculana oryzae; [4]
  Growth in % at 31 ppm with Pyrior: 100%

## COC(=O)Sc1ncnn1CC1(c2ccc(F)cc2)OC1c1ccccc1Cl (stereo not shown) [WO9742178, p. 55 (4th compound)]
Leptosphaeria nodorum; [1]
  Growth in % at 31 ppm with Leptno: 100%
Septoria tritici; [1]
  Growth in % at 31 ppm with Septtr: 100%
